# Laboratory results reported in ChEMBL document CHEMBL1151757, “Synthesis, radiosynthesis, and biological evaluation of fluorine-18-labeled 2beta-carbo(fluoroalkoxy)-3beta-(3'-((Z)-2-haloethenyl)phenyl)nortropanes: candidate radioligands for in vivo imaging of the serotonin transporter with positron emission tomography” (J Med Chem, 2008).
# Legend:
# [1] = Drug uptake in anesthetized cynomolgus monkey brain occipital lobe after 155 mins postinjection; type: ADME, organism-based, Macaca fascicularis; conditions: in vivo
# [2] = Ratio of drug uptake in occipital lobe to cerebellum in anesthetized cynomolgus monkey after 135 mins postinjection; type: ADME, organism-based, Macaca fascicularis; conditions: in vivo, 2.25 h
# Thalamus = experiment: Drug uptake in anesthetized cynomolgus monkey brain thalamus after 205 mins postinjection; type: ADME, organism-based, Macaca fascicularis; conditions: in vivo
# Midbrain [3] = experiment: Drug uptake in anesthetized cynomolgus monkey brain midbrain after 225 mins postinjection; type: ADME, organism-based, Macaca fascicularis; conditions: in vivo, 3.75 h
# Midbrain [4] = experiment: Drug uptake in anesthetized cynomolgus monkey brain midbrain after 1.5 mins postinjection; type: ADME, organism-based, Macaca fascicularis; parameters: unit not given here; conditions: in vivo, 0.025 h
# [5] = Ratio of drug uptake in medulla to cerebellum in anesthetized cynomolgus monkey after 155 mins postinjection; type: ADME, organism-based, Macaca fascicularis; conditions: in vivo
# [6] = Ratio of drug uptake in caudate to cerebellum in anesthetized cynomolgus monkey after 135 mins postinjection; type: ADME, organism-based, Macaca fascicularis; conditions: in vivo, 2.25 h
# [7] = Drug uptake in anesthetized cynomolgus monkey brain frontal lobe after 65 mins postinjection; type: ADME, organism-based, Macaca fascicularis; conditions: in vivo
# Medulla [8] = experiment: Drug uptake in anesthetized cynomolgus monkey brain medulla after 3.5 mins postinjection; type: ADME, organism-based, Macaca fascicularis; conditions: in vivo
# [9] = Ratio of drug uptake in pons to cerebellum in anesthetized cynomolgus monkey after 18.5 mins postinjection; type: ADME, organism-based, Macaca fascicularis; conditions: in vivo
# Medulla [10] = experiment: Drug uptake in anesthetized cynomolgus monkey brain medulla after 165 mins postinjection; type: ADME, organism-based, Macaca fascicularis; conditions: in vivo, 2.75 h
# Putamen = experiment: Drug uptake in anesthetized cynomolgus monkey brain putamen after 27.5 mins postinjection; type: ADME, organism-based, Macaca fascicularis; parameters: unit not given here; conditions: in vivo
# Midbrain [11] = experiment: Drug uptake in anesthetized cynomolgus monkey brain midbrain after 155 mins postinjection; type: ADME, organism-based, Macaca fascicularis; conditions: in vivo
# [12] = Ratio of drug uptake in midbrain to cerebellum in anesthetized cynomolgus monkey after 18.5 mins postinjection; type: ADME, organism-based, Macaca fascicularis; conditions: in vivo
# [13] = Ratio of drug uptake in medulla to cerebellum in anesthetized cynomolgus monkey after 35 mins postinjection; type: ADME, organism-based, Macaca fascicularis; conditions: in vivo
# [14] = Drug uptake in anesthetized cynomolgus monkey brain occipital lobe after 195 mins postinjection; type: ADME, organism-based, Macaca fascicularis; conditions: in vivo, 3.25 h
# Caudate [15] = experiment: Drug uptake in anesthetized cynomolgus monkey brain caudate after 135 mins postinjection; type: ADME, organism-based, Macaca fascicularis, Caudate nucleus; conditions: in vivo, 2.25 h
# Medulla [16] = experiment: Drug uptake in anesthetized cynomolgus monkey brain medulla after 175 mins postinjection; type: ADME, organism-based, Macaca fascicularis; conditions: in vivo
# Pons [17] = experiment: Drug uptake in anesthetized cynomolgus monkey brain pons after 235 mins postinjection; type: ADME, organism-based, Macaca fascicularis; conditions: in vivo
# [18] = Drug uptake in anesthetized cynomolgus monkey brain frontal lobe after 2.5 mins postinjection; type: ADME, organism-based, Macaca fascicularis; conditions: in vivo
# [19] = Drug uptake in anesthetized cynomolgus monkey brain frontal lobe after 95 mins postinjection; type: ADME, organism-based, Macaca fascicularis; conditions: in vivo
# Caudate [20] = experiment: Drug uptake in anesthetized cynomolgus monkey brain caudate after 115 mins postinjection; type: ADME, organism-based, Macaca fascicularis, Caudate nucleus; conditions: in vivo
# Caudate [21] = experiment: Drug uptake in anesthetized cynomolgus monkey brain caudate after 105 mins postinjection; type: ADME, organism-based, Macaca fascicularis, Caudate nucleus; conditions: in vivo, 1.75 h
# [22] = Ratio of drug uptake in medulla to cerebellum in anesthetized cynomolgus monkey after 185 mins postinjection; type: ADME, organism-based, Macaca fascicularis; conditions: in vivo
# [23] = Ratio of drug uptake in midbrain to cerebellum in anesthetized cynomolgus monkey after 2.5 mins postinjection; type: ADME, organism-based, Macaca fascicularis; conditions: in vivo
# Midbrain [24] = experiment: Drug uptake in anesthetized cynomolgus monkey brain midbrain after 12.5 mins postinjection; type: ADME, organism-based, Macaca fascicularis; parameters: unit not given here; conditions: in vivo
# Midbrain [25] = experiment: Drug uptake in anesthetized cynomolgus monkey brain midbrain after 9.5 mins postinjection; type: ADME, organism-based, Macaca fascicularis; parameters: unit not given here; conditions: in vivo
# [26] = Ratio of drug uptake in thalamus to cerebellum in anesthetized cynomolgus monkey after 135 mins postinjection; type: ADME, organism-based, Macaca fascicularis; conditions: in vivo, 2.25 h
# [27] = Drug uptake in anesthetized cynomolgus monkey brain frontal lobe after 125 mins postinjection; type: ADME, organism-based, Macaca fascicularis; conditions: in vivo
# [28] = Drug uptake in anesthetized cynomolgus monkey brain occipital lobe after 3.5 mins postinjection; type: ADME, organism-based, Macaca fascicularis; conditions: in vivo
# Pons [29] = experiment: Drug uptake in anesthetized cynomolgus monkey brain pons after 6.5 mins postinjection; type: ADME, organism-based, Macaca fascicularis; conditions: in vivo
# [30] = Drug uptake in anesthetized cynomolgus monkey brain frontal lobe after 145 mins postinjection; type: ADME, organism-based, Macaca fascicularis; conditions: in vivo
# [31] = Ratio of drug uptake in putamen to cerebellum in anesthetized cynomolgus monkey after 235 mins postinjection; type: ADME, organism-based, Macaca fascicularis; conditions: in vivo
# [32] = Drug uptake in anesthetized cynomolgus monkey brain cerebellum after 205 mins postinjection; type: ADME, organism-based, Macaca fascicularis; conditions: in vivo
structure (smiles),measurement,setting,value
O=C(OCCC[18F])C1C2CCC(CC1c1cccc(/C=C\I)c1)N2 (centres undefined),Drug uptake,[1],2.63
same,Ratio,[2],1.1
same,Drug uptake,Thalamus,3.14
same,Drug uptake,Midbrain [3],3.76
same,Drug uptake,Midbrain [4],0.32
same,Ratio,[5],1.8
same,Ratio,[6],1.3
same,Drug uptake,[7],2.77
same,Drug uptake,Medulla [8],2.2
same,Ratio,[9],0.9
same,Drug uptake,Medulla [10],4.45
same,Drug uptake,Putamen,4.9
same,Drug uptake,Midbrain [11],4.35
same,Ratio,[12],1
same,Ratio,[13],1.1
same,Drug uptake,[14],2.34
same,Drug uptake,Caudate [15],3.34
same,Drug uptake,Medulla [16],4.08
same,Drug uptake,Pons [17],3.31
same,Drug uptake,[18],0.5
same,Drug uptake,[19],2.68
same,Drug uptake,Caudate [20],3.61
same,Drug uptake,Caudate [21],3.7
same,Ratio,[22],1.8
same,Ratio,[23],0.9
same,Drug uptake,Midbrain [24],4.11
same,Drug uptake,Midbrain [25],4
same,Ratio,[26],1.5
same,Drug uptake,[27],2.54
same,Drug uptake,[28],1.29
same,Drug uptake,Pons [29],2.85
same,Drug uptake,[30],2.29
same,Ratio,[31],1.6
same,Drug uptake,[32],1.91
